Measurements from patent publication US20130150376A1, “Novel Sultam Compounds” (PFIZER INC., priority 2010, published 2013).
Where a name gives a salt, the structure may show the parent alone. Read-outs that look alike come from different tables or passages of the source.

Target: T1, BACE1 enzyme (soluble, truncated BACE enzyme, BACE1deltaTM96His) (Homo sapiens, UniProt P56817)
T1 construct: soluble, truncated BACE enzyme (BACE1deltaTM96His); His; made in house
Test: BACE1 Fluorescent Polarization (FP) Assay
Format: biochemical
Conditions: geometric mean of 2-4 IC50 determinations unless footnoted (^2: 5-6 determinations; ^4: single determination)
Description: BACE1 Fluorescent Polarization (FP) Assay
The fluorescently tagged synthetic substrate, Biotin-GLTNIKTEEISEISŶEVEFR-C[oregon green]KK-OH can be efficiently cleaved by the beta-secretase enzyme and is therefore useful to assay beta-secretase activity in the presence or absence of inhibitory compounds. The his tagged BACE1 enzyme was affinity purified material from conditioned media of CHO-K1 cells that had been transfected to express soluble, truncated BACE enzyme (BACE1deltaTM96His). Compounds were incubated in a ½ log dose response (from a top concentration of 100 μM) with BACE1 enzyme (0.1 nM final) and the biotinylated fluorescent peptide substrate (150 nM final) in assay buffer containing 100 mM sodium acetate, pH 4.5 (brought to pH with acetic acid), and 0.001% Tween-20. Total reaction volumes of 30 μL were carried out in 384-well black plates (Thermo Scientific 4318). Plates were covered and incubated for 3 hours at 37° C. The reactions were then stopped by addition of 30 μL of 1.5 μM Streptavidin (Pierce, 21125). After a 10 minute incubation at room temperature, plates were read on a PerkinElmer Envision for fluorescence polarization (Ex485 nm/Em530 nm). The activity of the beta-secretase enzyme is detected by changes in the fluorescence polarization (Δ mP) that occur when the substrate is cleaved by the enzyme.

[1] = 11-point curve, read-out: BACE activity, 11-point curve, IC50
[2] = 8-point curve, read-out: BACE activity, 8-point curve, IC50

T1 sequence (P56817 46-457): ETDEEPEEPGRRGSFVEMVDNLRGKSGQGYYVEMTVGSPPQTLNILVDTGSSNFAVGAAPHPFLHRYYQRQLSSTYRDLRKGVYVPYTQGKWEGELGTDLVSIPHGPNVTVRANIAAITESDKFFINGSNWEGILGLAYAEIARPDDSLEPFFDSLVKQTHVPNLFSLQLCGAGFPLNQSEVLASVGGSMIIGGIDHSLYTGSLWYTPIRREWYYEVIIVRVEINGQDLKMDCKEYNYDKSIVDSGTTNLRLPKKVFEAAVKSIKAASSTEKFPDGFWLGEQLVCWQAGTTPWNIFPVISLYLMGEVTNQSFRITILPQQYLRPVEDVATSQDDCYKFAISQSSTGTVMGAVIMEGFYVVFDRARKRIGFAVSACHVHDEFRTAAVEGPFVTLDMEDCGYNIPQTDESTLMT

Row | IC50 [1] | IC50 [2] | SMILES
1 | 3.16 µM |  | CC(C)Oc1cccc(CN2CC[C@@]3(C[C@@H]2C)C(O)CS(=O)(=O)N3c2cccc(F)c2)c1 (stereo partly drawn) [Example 65, (5R,7S)-1-(3-fluorophenyl)-8-(3-isopropoxybenzyl)-7-methyl-2-thia-1,8-diazaspiro[4.5]decan-4-ol 2,2-dioxide]
2 | 5.65 µM |  | Cc1cccnc1-c1cc(CN2CC[C@]3(C=CS(=O)(=O)N3c3cccc(F)c3)C[C@@H]2C)ccc1F [Example 78, (5R,7S)-8-[4-fluoro-3-(3-methylpyridin-2-yl)benzyl]-1-(3-fluorophenyl)-7-methyl-thia-1,8-diazaspiro[4.5]dec-3-ene 2,2-dioxide]
3 | 0.0333 µM | 0.019 µM | Cc1ccccc1-c1cc(CN2CC[C@]3(CCS(=O)(=O)N3c3cccc(F)c3)C[C@@H]2C)ccc1O [Example 62, 5-{[(5R,7S)-1-(3-fluorophenyl)-7-methyl-2,2-dioxido-2-thia-1,8-diazaspiro[4.5]dec-8-yl]methyl-2′-methylbiphenyl-2-ol, hydrochloride salt]
4 | 4.46 µM | 2.29 µM | COc1ccc2[nH]c(CN3CC[C@]4(CCS(=O)(=O)N4c4cccc(F)c4)C[C@@H]3C)cc2c1 [Example 53, (5R,7S)-1-(3-fluorophenyl)-8-[(5-methoxy-1H-indol-2-yl)methyl]-7-methyl-2-thia-1,8-diazaspiro[4.5]decane 2,2-dioxide]
5 | 7.07 µM |  | C[C@H]1CCO[C@H]1c1ocnc1CN1CC[C@]2(C=CS(=O)(=O)N2c2cccc(F)c2)C[C@@H]1C (relative stereo) [Example 69, (5R,7S)-1-(3-fluorophenyl)-7-methy1-8-({5-[cis-3-methyltetrahydrofuran-2-yl]-1,3-oxazol-4-yl}methyl)-2-thia-1,8-diazaspiro[4.5]dec-3-ene 2,2-dioxide]
6 | 0.0418 µM |  | C[C@H]1C[C@@]2(C=CS(=O)(=O)N2c2cccc(F)c2)CCN1Cc1ccc(O)c(C2CCC2)c1 [Example 75, 2-cyclobutyl-4-{[(5R,7S)-1-(3-fluorophenyl)-7-methyl-2,2-dioxido-2-thia-1,8-diazaspiro[4.5]dec-3-en-8-yl]methyl}phenol]
7 | 4.08 µM |  | Cc1cncc(-c2ocnc2CN2CC[C@]3(CCS(=O)(=O)N3c3cccc(F)c3)C[C@@H]2C)c1 [Example 57, (5R,7S)-1-(3-fluorophenyl)-7-methyl-8-{[5-(5-methylpyridin-3-yl)-1,3-oxazol-4-yl]methyl}-2-thia-1,8-diazaspiro[4.5]decane 2,2-dioxide, hydrochloride salt]
8 | 6.54 µM |  | C[C@H]1C[C@]2(CCN1Cc1ncoc1-c1cncs1)CCS(=O)(=O)N2c1cccc(F)c1 [Example 60, (5R,7S)-1-(3-fluorophenyl)-7-methyl-8-{[5-(1,3-thiazol-5-yl)-1,3-oxazol-4-yl]methyl}-2-thia-1,8-diazaspiro[4.5]decane 2,2-dioxide, hydrochloride salt]
9 | 0.137 µM | 0.0533 µM | Cc1ccccc1-c1cccc(CN2CC[C@]3(C=CS(=O)(=O)N3c3cccc(F)c3)C[C@@H]2C)c1 [Example 54, (5R,7S)-1-(3-fluorophenyl)-7-methyl-8-[(2′-methylbiphenyl-3-yl)methyl]-2-thia-1,8-diazaspiro[4.5]dec-3-ene 2,2-dioxide]
10 |  | 5.82 µM | COC1=CS(=O)(=O)N(c2cccc(F)c2)[C@@]12CCN(Cc1cccc(OC(C)C)c1)[C@@H](C)C2 [Example 63, (5R,7S)-1-(3-fluorophenyl)-8-(3-isopropoxybenzyl)-4-methoxy-7-methyl-2-thia-1,8-diazaspiro[4.5]dec-3-ene 2,2-dioxide]
11 | 15.2 µM | 6.72 µM | Cc1cncc(-c2ncsc2CN2CC[C@]3(C=CS(=O)(=O)N3c3cccc(F)c3)C[C@@H]2C)c1 [Example 49, (5R,7S)-1-(3-fluorophenyl)-7-methyl-8-{[4-(5-methylpyridin-3-yl)-1,3-thiazol-5-yl]methyl}-2-thia-1,8-diazaspiro[4.5]dec-3-ene 2,2-dioxide, hydrochloride salt]
12 | 5.79 µM | 1.77 µM | CC(C)Oc1cccc(CN2CC[C@]3(C=CS(=O)(=O)N3c3ccc(F)c(F)c3)C[C@@H]2C)c1 [Example 68, (5R,7S)-1-(3,4-difluorophenyl)-8-(3-isopropoxybenzyl)-7-methyl-2-thia-1,8-diazaspiro[4.5]dec-3-ene 2,2-dioxide, hydrochloride salt]

Second part, the compound before the results:

Row | SMILES | IC50 [1] | IC50 [2]
13 | C[C@H]1C[C@]2(CCN1Cc1ncoc1-c1cncnc1)CCS(=O)(=O)N2c1cccc(F)c1 [Example 33, (5R,7S)-1-(3-fluorophenyl)-7-methyl-8-[(5-pyrimidin-5-yl-1,3-oxazol-4-yl)methyl]-2-thia-1,8-diazaspiro[4.5]decane 2,2-dioxide, hydrochloride salt] | 3.03 µM | 
14 | C[C@H]1C[C@]2(CCN1Cc1ccc(O)c(C3CCCO3)c1)CCS(=O)(=O)N2c1cccc(F)c1 (single isomer, unassigned) [Example 46] | 3.01 µM | 0.866 µM
15 | C[C@H]1C[C@@]2(C=CS(=O)(=O)N2c2cccc(F)c2)CCN1Cc1scnc1-c1cncnc1 [Example 43, (5R,7S)-1-(3-fluorophenyl)-7-methyl-8-[(4-pyrimidin-5-yl-1,3-thiazol-5-yl)methyl]-2-thia-1,8-diazaspiro[4.5]dec-3-ene 2,2-dioxide] | 8.25 µM | 0.975 µM
16 | C[C@H]1C[C@]2(CCN1Cc1ccc(O)c(Cl)c1)CCS(=O)(=O)N2c1cccc(F)c1 [Example 29, 2-chloro-4-{[(5R7S)-1-(3-fluorophenyl)-7-methyl-2,2-dioxido-2-thia-1,8-diazaspiro[4.5]dec-8-yl]methyl}phenol, hydrochloride salt] | 1.53 µM | 0.332 µM
17 | C[C@H]1C[C@@]2(C=CS(=O)(=O)N2c2cccc(F)c2)CCN1Cc1ccc(O)c(C2CCCO2)c1 (mixture of isomers) [Example 11, 4-{[(5R,7S)-1-(3-fluorophenyl)-7-methyl-2,2-dioxido-2-thia-1,8-diazaspiro[4.5]dec-3-en-8-yl]methyl}-2-(tetrahydrofuran-2-yl)phenol] |  | 0.0533 µM
18 | C[C@H]1C[C@@]2(C=CS(=O)(=O)N2c2cccc(F)c2)CCN1Cc1scnc1CC1CC1 [Example 24, (5R,7S)-8-{[4-(cyclopropylmethyl)-1,3-thiazol-5-yl]methyl}-1-(3-fluorophenyl)-7-methyl-2-thia-1,8-diazaspiro[4.5]dec-3-ene 2,2-dioxide, hydrochloride salt] | 0.353 µM | 0.0519 µM
19 | CC(C)Cc1ocnc1CN1CC[C@]2(C=CS(=O)(=O)N2c2cccc(F)c2)C[C@@H]1C [Example 12, (5R,7S)-1-(3-fluorophenyl)-8-[(5-isobutyl-1,3-oxazol-4-yl)methyl]-7-methyl-2-thia-1,8-diazaspiro[4.5]dec-3-ene 2,2-dioxide] |  | 0.338 µM
20 | Cc1cncc(-c2ocnc2CN2CC[C@]3(C=CS(=O)(=O)N3c3cccc(F)c3)C[C@@H]2C)c1 [Example 38, (5R,7S)-1-(3-fluorophenyl)-7-methyl-8-{[5-(5-methylpyridin-3-yl)-1,3-oxazol-4-yl]methyl}-2-thia-1,8-diazaspiro[4.5]dec-3-ene 2,2-dioxide] | 2.78 µM | 0.752 µM
21 | CC(C)Oc1cccc(CN2CC[C@]3(C=CS(=O)(=O)N3c3cccc(F)c3)C[C@@H]2C)c1 [Example 17, (5R,7S)-1-(3-fluorophenyl)-8-(3-isopropoxybenzyl)-7-methyl-2-thia-1,8-diazaspiro[4.5]dec-3-ene 2,2-dioxide] | 0.908 µM | 0.0849 µM
22 | C[C@H]1C[C@@]2(C=CS(=O)(=O)N2c2cccc(F)c2)CCN1Cc1scnc1-c1cncc(F)c1 [Example 44, (5R,7S)-1-(3-fluorophenyl)-8-{[4-(5-fluoropyridin-3-yl)-1,3-thiazol-5-yl]methyl}-7-methyl-2-thia-1,8-diazaspiro[4.5]dec-3-ene 2,2-dioxide, hydrochloride salt] | 8.46 µM | 3.07 µM
23 | CC(C)Oc1cc(CN2CC[C@]3(CCS(=O)(=O)N3c3cccc(F)c3)C[C@@H]2C)ncc1O [Example 3, 6-{[(5R,7S)-1-(3-Fluorophenyl)-7-methyl-2,2-dioxido-2-thia-1,8-diazaspiro[4.5]dec-8-yl]methyl}-4-isopropoxypyridin-3-ol] | 0.613 µM | 0.0815 µM
24 | C[C@H]1C[C@@]2(C=CS(=O)(=O)N2c2cccc(F)c2)CCN1Cc1ccc(O)c(OC2CC2)c1 [Example 14, 2-(cyclopropyloxy)-4-{[(5R,7S)-1-(3-fluorophenyl)-7-methyl-2,2-dioxido-2-thia-1,8-diazaspiro[4.5]dec-3-en-8-yl]methyl}phenol] |  | 0.0425 µM
25 | Cc1ccsc1-c1cc(CN2CC[C@]3(C=CS(=O)(=O)N3c3cccc(F)c3)C[C@@H]2C)ccc1O [Example 5, 4-{[(5R,7S)-1-(3-fluorophenyl)-7-methyl-2,2-dioxido-2-thia-1,8-diazaspiro[4.5]dec-3-en-8-yl]methyl}-2-(3-methyl-2-thienyl)phenol, hydrochloride salt] |  | 0.000731 µM
